Several values for one entry are separate records, joined by “and”; a condition that tells them apart may be missing. Identical values can stand only once. Inconclusive results and toxic doses are left out.
Test system: P388 leukemia ip, CD2F1 mice, survival T/C
Assay: NCI In Vivo Anticancer Drug Screen. Data for tumor model P388 Leukemia (intraperitoneal) in CD2F1 (CDF1) mice
Details: endpoint: median survival time, higher = longer survival
Method in brief: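 Mice carrying the transplanted tumor received test compound or vehicle. Survival was recorded in each group, and the value is the treated-group measurement divided by that of the vehicle-treated control group.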

[1] = dose: 25.0 mg/kg/injection, schedule: Q01DX009 (ip), vehicle: saline with Tween-80
[2] = dose: 50.0 mg/kg/injection, schedule: Q01DX009 (ip), vehicle: saline with Tween-80
[3] = dose: 50.0 mg/kg/injection, schedule: Q04DX003 (ip), vehicle: Klucel (hydroxypropylcellulose) (HPC)
[4] = dose: 100.0 mg/kg/injection, schedule: Q01DX009 (ip), vehicle: saline with Tween-80
[5] = dose: 100.0 mg/kg/injection, schedule: Q04DX003 (ip), vehicle: Klucel (hydroxypropylcellulose) (HPC)
[6] = dose: 200.0 mg/kg/injection, schedule: Q04DX003 (ip), vehicle: Klucel (hydroxypropylcellulose) (HPC)
[7] = dose: 400.0 mg/kg/injection, schedule: Q04DX003 (ip), vehicle: Klucel (hydroxypropylcellulose) (HPC)
[8] = dose: 100.0 mg/kg/injection, schedule: Q04DX003 (ip), vehicle: saline with Tween-80
[9] = dose: 200.0 mg/kg/injection, schedule: Q04DX003 (ip), vehicle: saline with Tween-80
[10] = dose: 50.0 mg/kg/injection, schedule: Q01DX005 (ip), vehicle: saline with Tween-80
[11] = dose: 100.0 mg/kg/injection, schedule: Q01DX005 (ip), vehicle: saline with Tween-80
[12] = dose: 200.0 mg/kg/injection, schedule: Q01DX005 (ip), vehicle: saline with Tween-80
[13] = dose: 15.0 mg/kg/injection, schedule: Q01DX005 (ip), vehicle: saline with Tween-80
[14] = dose: 30.0 mg/kg/injection, schedule: Q01DX005 (ip), vehicle: saline with Tween-80
[15] = dose: 60.0 mg/kg/injection, schedule: Q01DX005 (ip), vehicle: saline with Tween-80
[16] = dose: 120.0 mg/kg/injection, schedule: Q01DX005 (ip), vehicle: saline with Tween-80
[17] = dose: 240.0 mg/kg/injection, schedule: Q01DX005 (ip), vehicle: saline with Tween-80
[18] = dose: 100.0 mg/kg/injection, schedule: Q04DX002 (ip), vehicle: Klucel (hydroxypropylcellulose) (HPC)
[19] = dose: 200.0 mg/kg/injection, schedule: Q04DX002 (ip), vehicle: Klucel (hydroxypropylcellulose) (HPC)
[20] = dose: 400.0 mg/kg/injection, schedule: Q04DX002 (ip), vehicle: Klucel (hydroxypropylcellulose) (HPC)
[21] = dose: 50.0 mg/kg/injection, schedule: Q01DX005 (ip), vehicle: Klucel (hydroxypropylcellulose) (HPC)
[22] = dose: 200.0 mg/kg/injection, schedule: Q01DX005 (ip), vehicle: Klucel (hydroxypropylcellulose) (HPC)
[23] = dose: 25.0 mg/kg/injection, schedule: Q01DX009 (ip), vehicle: saline
[24] = dose: 100.0 mg/kg/injection, schedule: Q01DX005 (ip), vehicle: Klucel (hydroxypropylcellulose) (HPC)

In the case of `c1ccc(C2=NNC(c3ccccc3)=NN2)cc1`, the T/C (dose: 0.78 mg/kg/injection, schedule: Q01DX009 (ip), vehicle: saline with Tween-80) is reported as 107 % of control, the T/C (dose: 1.56 mg/kg/injection, schedule: Q01DX009 (ip), vehicle: saline with Tween-80) is reported as 95 % of control and the T/C (dose: 3.12 mg/kg/injection, schedule: Q01DX009 (ip), vehicle: saline with Tween-80) is reported as 89 % of control. For the same molecule, the T/C [1] was 93 % of control, the T/C [2] was 100 % of control and the T/C [3] was 97 % of control. For the same molecule, the T/C [4] was 90 % of control, the T/C [5] was 104 % of control and the T/C [6] was 97 % of control. For the same molecule, the T/C [7] was 94 % of control.

In the case of `CCC(Br)C(=O)SC(C)(C)C` (stereo not drawn), the T/C [8] is reported as 111 % of control and the T/C [9] is reported as 106 % of control.

`O=C(S)CC1(O)CCCCC1` was tested, and the T/C [5] was 99 % of control, the T/C [6] was 100 % of control and the T/C [7] was 96 % of control.

`Nc1n[nH]c(=O)c2cccnc12` was tested, and the T/C [10] was 97 % of control, the T/C [11] was 99 % of control and the T/C [12] was 101 % of control.

For `Cc1ccc([N+](=O)[O-])cc1NC(=O)COc1ccc(Cl)cc1`, the T/C [8] was 100 % of control, the T/C [9] was 90 % of control and the T/C (dose: 400.0 mg/kg/injection, schedule: Q04DX003 (ip), vehicle: saline with Tween-80) was 90 % of control.

With `COC(=O)C1=C(C(=O)OC)C2(C)OC1c1ccccc12` (stereo not drawn) the T/C [13] was 106 % of control, the T/C [14] was 106 % of control and the T/C [15] was 100 % of control and 102 % of control.

With `COc1ccc2c(CC(=O)O)cc(=O)oc2c1` the T/C [15] was 102 % of control, the T/C [16] was 120 % of control and the T/C [17] was 99 % of control.

`COc1cc(C2C(C(C)=O)=C(C)Oc3cc4c(cc32)OCO4)cc(OC)c1O` (stereo not drawn) was tested, and the T/C [13] was 91 % of control, the T/C [14] was 91 % of control and the T/C [15] was 86 % of control and 90 % of control.

With `Clc1ccccc1C(=Nc1ccccc1)C(=Nc1ccccc1)c1ccccc1Cl` the T/C [18] was 99 % of control, the T/C [19] was 102 % of control and the T/C [20] was 96 % of control.

With `CCOC(=O)ON(C)C(=O)OCC` the T/C [10] was 102 % of control, the T/C [11] was 102 % of control and the T/C [12] was 107 % of control. The T/C (dose: 400.0 mg/kg/injection, schedule: Q01DX005 (ip), vehicle: saline with Tween-80) was 102 % of control.

In the case of `Cc1csc2nc(-c3ccccc3)c(/C=N/NC(=O)CN(C)C)n12`, the T/C [15] is reported as 110 % of control, the T/C [16] is reported as 103 % of control and the T/C [17] is reported as 99 % of control.

With `CC(=O)C1=C(O)/C(=C\SCc2ccccc2)NC1=O` the T/C (dose: 8.75 mg/kg/injection, schedule: Q01DX005 (ip), vehicle: Klucel (hydroxypropylcellulose) (HPC)) was 105 % of control, the T/C (dose: 17.5 mg/kg/injection, schedule: Q01DX005 (ip), vehicle: Klucel (hydroxypropylcellulose) (HPC)) was 104 % of control and the T/C (dose: 35.0 mg/kg/injection, schedule: Q01DX005 (ip), vehicle: Klucel (hydroxypropylcellulose) (HPC)) was 101 % of control.

For `CC(C)N1C(Nc2ccccn2)C(C)(C)C(C)(C)C1Nc1ccccn1` (stereo not drawn), the T/C (dose: 30.0 mg/kg/injection, schedule: Q01DX005 (ip), vehicle: Klucel (hydroxypropylcellulose) (HPC)) was 121 % of control and the T/C (dose: 240.0 mg/kg/injection, schedule: Q01DX005 (ip), vehicle: Klucel (hydroxypropylcellulose) (HPC)) was 151 % of control and 164 % of control.

In the case of `CC1C(=O)OCC1(C)O` (stereo not drawn), the T/C (dose: 60.0 mg/kg/injection, schedule: Q01DX005 (ip), vehicle: saline) is reported as 107 % of control, the T/C (dose: 120.0 mg/kg/injection, schedule: Q01DX005 (ip), vehicle: saline) is reported as 103 % of control and the T/C (dose: 240.0 mg/kg/injection, schedule: Q01DX005 (ip), vehicle: saline) is reported as 109 % of control.

In the case of `Nc1nnc(-c2ccc(Nc3nc4ccccc4[nH]3)c([N+](=O)[O-])c2)s1`, the T/C [15] is reported as 98 % of control and the T/C [16] is reported as 101 % of control.

For `CC(C)C(Nc1ncnc2c1CCc1ccccc1-2)C(=O)O` (stereo not drawn), the T/C (dose: 50.0 mg/kg/injection, schedule: Q04DX002 (ip), vehicle: saline with Tween-80) was 95 % of control and the T/C (dose: 100.0 mg/kg/injection, schedule: Q04DX002 (ip), vehicle: saline with Tween-80) was 100 % of control.

For `CN(C)CC1C2CCC(C2)C1O` (stereo not drawn), the T/C [10] was 98 % of control, the T/C [11] was 97 % of control and the T/C [12] was 99 % of control.

`CCCCCCCC/C=C\CCCCCCCC(=O)O` was tested, and the T/C [3] was 104 % of control, the T/C [5] was 103 % of control and 97 % of control and the T/C [6] was 102 % of control and 93 % of control. The T/C [7] was 92 % of control.

For `COC(=O)Nc1nc2ccc(OCCO)cc2[nH]1`, the T/C (dose: 25.0 mg/kg/injection, schedule: Q01DX005 (ip), vehicle: DMSO) was 104 % of control, the T/C (dose: 50.0 mg/kg/injection, schedule: Q01DX005 (ip), vehicle: DMSO) was 100 % of control and the T/C (dose: 100.0 mg/kg/injection, schedule: Q01DX005 (ip), vehicle: DMSO) was 104 % of control. The T/C (dose: 200.0 mg/kg/injection, schedule: Q01DX005 (ip), vehicle: DMSO) was 103 % of control and the T/C (dose: 400.0 mg/kg/injection, schedule: Q01DX005 (ip), vehicle: DMSO) was 101 % of control.

In the case of `CCc1nc(N)nc(N)c1-c1ccc2nn(-c3ccccc3)[n+]([O-])c2c1`, the T/C [21] is reported as 108 % of control and the T/C [22] is reported as 87 % of control.

With `COC(=O)[C@H]1[C@H]2C[C@@H]3c4[nH]c5cc(OC)ccc5c4CCN3C[C@H]2C[C@@H](OC(=O)c2ccc(N)cc2)[C@@H]1OC` the T/C [10] was 97 % of control, the T/C [11] was 87 % of control and the T/C [12] was 94 % of control.

With `CCCCCCC(=O)Nc1ncc([N+](=O)[O-])s1` the T/C (dose: 50.0 mg/kg/injection, schedule: Q01DX009 (ip), vehicle: Klucel (hydroxypropylcellulose) (HPC)) was 106 % of control, the T/C (dose: 100.0 mg/kg/injection, schedule: Q01DX009 (ip), vehicle: Klucel (hydroxypropylcellulose) (HPC)) was 106 % of control and the T/C (dose: 200.0 mg/kg/injection, schedule: Q01DX009 (ip), vehicle: Klucel (hydroxypropylcellulose) (HPC)) was 100 % of control.

`CCOC(=O)/C(C#N)=C(\CCC(C(=O)O)N1C(=O)c2ccccc2C1=O)OC` (stereo not drawn) was tested, and the T/C [18] was 102 % of control, the T/C [19] was 102 % of control and the T/C [20] was 110 % of control.

With `O=S(=O)(O)SNCCN1CCOCC1` the T/C (dose: 6.25 mg/kg/injection, schedule: Q01DX009 (ip), vehicle: saline) was 105 % of control, the T/C (dose: 12.5 mg/kg/injection, schedule: Q01DX009 (ip), vehicle: saline) was 110 % of control and the T/C [23] was 110 % of control.

In the case of `O=[N+]([O-])c1ccc(Sc2ccncn2)c([N+](=O)[O-])c1`, the T/C (dose: 12.5 mg/kg/injection, schedule: Q01DX009 (ip), vehicle: saline with Tween-80) is reported as 91 % of control, the T/C [1] is reported as 116 % of control and the T/C [2] is reported as 123 % of control. The T/C [4] was 116 % of control.

In the case of `Nc1ccn([C@@H]2C=C(CO)[C@@H](O)[C@H]2O)c(=O)n1`, the T/C (dose: 0.5 mg/kg/injection, schedule: Q01DX009 (ip), vehicle: saline) is reported as 150 % of control, the T/C (dose: 1.0 mg/kg/injection, schedule: Q01DX009 (ip), vehicle: saline) is reported as 188 % of control and the T/C (dose: 2.25 mg/kg/injection, schedule: Q01DX009 (ip), vehicle: saline) is reported as 111 % of control and 87 % of control.

In the case of `O=C(O)CC(O)(CC(=O)O)C(=O)O.O=C(O)CC(O)(CC(=O)O)C(=O)O.[O]=[Mo]1[O][Mo](=[O])[O]1`, the T/C [23] is reported as 93 % of control.

With `c1ccc2nc(N3CCCC3)c(N3CCCCC3)nc2c1` the T/C [21] was 102 % of control, the T/C [24] was 94 % of control and the T/C [22] was 100 % of control.

For `CCN(CC)CCOc1ccc(N=Nc2ccc(N)nc2N)cc1`, the T/C [15] was 102 % of control, the T/C [16] was 93 % of control and the T/C [17] was 101 % of control.

`O=[N+]([O-])c1ccc(N=N/C(=N\Nc2ccccc2)c2nc3ccccc3[nH]2)c([N+](=O)[O-])c1` was tested, and the T/C [10] was 97 % of control, the T/C [11] was 95 % of control and the T/C [12] was 97 % of control.

With `CNc1nc(NC)nc(N(C)C=O)n1` the T/C [1] was 95 % of control and the T/C [2] was 90 % of control.

With `Nc1nc2c(ncn2[C@@H](CO)OC(CO)CO)c(=O)[nH]1` the T/C [21] was 99 % of control, the T/C [24] was 98 % of control and the T/C [22] was 98 % of control.

In the case of `O=C(O)c1cc(OCc2ccccc2)cc(OCc2ccccc2)c1`, the T/C [15] is reported as 96 % of control, the T/C [16] is reported as 102 % of control and the T/C [17] is reported as 106 % of control.

Reference: PubChem BioAssay AID330 (DTP/NCI, 2004)
